Among the data in patent publication US20240382471A1, “GLUCAGON-LIKE PEPTIDE-1 RECEPTOR MODULATORS AND USES THEREOF” (HEPAGENE THERAPEUTICS (HK) LIMITED, priority 2021, published 2024) are EC50 values, retold here.

The experiment deals with GLP1R (Homo sapiens, UniProt P43220). Description: GLP1R/CRE-Luc luciferase reporter gene assay (agonist activity). Format: cell-based. The arrangement: host or cells: HKE293 (so in the source). The conditions noted are these: HKE293-Human GLP1R/CRE-luc cells, 5 h at 37° C., read-out: EC50 (nM) Assay 2. On the procedure: GLP1R-mediated agonist activity was determined with a cell-based functional assay utilizing a britelite plus luciferase reporter gene assay system. The stable cell line overexpress GLP1R and target response element. The stimulation with GLP1R agonist results in the upregulation of intracellular cAMP, which regulate the activities of cAMP-response element binding protein (CREB) and CREB-Luc. Reagents and equipment used in the assay are listed below, followed by the protocol.
Chain of GLP1R (P43220 24-463): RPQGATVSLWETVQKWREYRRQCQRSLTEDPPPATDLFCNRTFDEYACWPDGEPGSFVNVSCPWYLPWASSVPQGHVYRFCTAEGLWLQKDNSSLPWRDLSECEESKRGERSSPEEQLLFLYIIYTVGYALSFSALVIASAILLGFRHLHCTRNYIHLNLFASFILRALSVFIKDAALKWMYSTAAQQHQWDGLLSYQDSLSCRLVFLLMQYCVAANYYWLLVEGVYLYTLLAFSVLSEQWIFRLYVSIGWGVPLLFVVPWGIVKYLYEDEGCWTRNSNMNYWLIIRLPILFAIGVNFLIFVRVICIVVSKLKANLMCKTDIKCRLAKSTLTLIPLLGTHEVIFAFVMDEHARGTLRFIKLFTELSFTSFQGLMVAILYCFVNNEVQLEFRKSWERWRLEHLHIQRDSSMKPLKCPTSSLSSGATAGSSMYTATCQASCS
• 1) Cell Line: HKE293-Human GLP1R/CRE-luc • 2) Complete Medium: DMEM+10% FBS+1×Penicillin-Streptomycin+400 μg/mL G418
• a) Seed HKE293-Human GLP1R/CRE-luc cells at 20,000 cells/well into 384 well assay plate (6007680-50, PE) using complete medium and incubate overnight. • b) Prepare 6×compound working solution with Medium. • c) Add 5 μL 6×compound working solution into cell plate, incubate 5 h at 37° C. • d) Add 20 μl britelite plus Luciferase Assay Reagent into each well of 384-well assay plate. • e) Record the luminescence value on Envision plate reader.
• 3.1% Activity is calculated as follow:
% Activity=(Signalcmpd−SignalAve_VC)/(SignalAve_PC−SignalAve_VC)×100. • 3.2 Calculate EC50 and Plot effect-dose curve of cmpds:
Y=Bottom+(Top−Bottom)/(1+10^((Log EC50−X)*HillSlope)) • X: log of agonist concentration; Y: % Activity.
In general terms: In a reporter assay the amount or activity of a reporter protein is the signal.
For orientation: EC50 means the concentration giving half of the maximal effect. On to `COc1cc(C#N)ccc1COc1nccc(C23CCN(Cc4nc5ccc(C(=O)O)cc5n4C[C@@H]4CCO4)CC2C3)n1` (stereo partly drawn) [Compound 1-27, 2-((6-(2-((4-cyano-2-methoxybenzyl)oxy)pyrimidin-4-yl)-3-azabicyclo[4.1.0]heptan-3-yl)methyl)-1-(((S)-oxetan-2-yl)methyl)-1H-benzo[d]imidazole-6-carboxylic acid], for which the EC50 was 11.7 nM.

Consider `COc1cc(C#N)ccc1COc1nc(C23CCN(Cc4nc5c(OC)cc(C(=O)O)cc5n4C[C@@H]4CCO4)CC2C3)ccc1F` (stereo partly drawn) [Compound 1-28, 2-((6-(6-((4-cyano-2-methoxybenzyl)oxy)-5-fluoropyridin-2-yl)-3-azabicyclo[4.1.0]heptan-3-yl)methyl)-4-methoxy-1-(((S)-oxetan-2-yl)methyl)-1H-benzo[d]imidazole-6-carboxylic acid], for which the EC50 was 0.46 nM.

As to `COc1c(COc2cccc(C34CCN(Cc5nc6ccc(C(=O)O)cc6n5C[C@@H]5CCO5)CC3C4)n2)ccc(C#N)c1F` (stereo partly drawn) [Compound 1-29, 2-((6-(6-((4-cyano-3-fluoro-2-methoxybenzyl)oxy)pyridin-2-yl)-3-azabicyclo[4.1.0]heptan-3-yl)methyl)-1-(((S)-oxetan-2-yl)methyl)-1H-benzo[d]imidazole-6-carboxylic acid], the EC50 was determined as 168 nM.

For the compound `COc1cc(C#N)ccc1COc1nc(C23CCN(Cc4nc5c(OC)cc(C(=O)O)cc5n4C[C@@H]4CCO4)CC2C3)ccc1OC` (stereo partly drawn) [Compound 1-30, 2-((6-(6-((4-cyano-2-methoxybenzyl)oxy)-5-methoxypyridin-2-yl)-3-azabicyclo[4.1.0]heptan-3-yl)methyl)-4-methoxy-1-(((S)-oxetan-2-yl)methyl)-1H-benzo[d]imidazole-6-carboxylic acid], the EC50 was found to be 28.1 nM.

For `COc1cc(C#N)ccc1COc1nc(C23CCN(Cc4nc5ccc(C(=O)O)cc5n4C[C@@H]4CCO4)CC2C3)ncc1F` (stereo partly drawn) [Compound 1-31, 2-((6-(4-((4-cyano-2-methoxybenzyl)oxy)-5-fluoropyrimidin-2-yl)-3-azabicyclo[4.1.0]heptan-3-yl)methyl)-1-(((S)-oxetan-2-yl)methyl)-1H-benzo[d]imidazole-6-carboxylic acid], the EC50 came out at 132 nM.

For the compound `[2H]C([2H])([2H])Oc1cc(C(=O)O)cc2c1nc(CN1CCC3(c4cccc(OCc5ccc(C#N)cc5OC)n4)CC3C1)n2C[C@@H]1CCO1` (stereo partly drawn) [Compound 1-32, 2-((6-(6-((4-cyano-2-methoxybenzyl)oxy)pyridin-2-yl)-3-azabicyclo[4.1.0]heptan-3-yl)methyl)-4-(methoxy-d3)-1-(((S)-oxetan-2-yl)methyl)-1H-benzo[d]imidazole-6-carboxylic acid], the EC50 turned out to be 0.49 nM.

For `COc1cc(C#N)ccc1COc1nc(C23CCN(Cc4nc5c(OC)cc(C(=O)O)cc5n4C[C@@H]4CCO4)CC2C3)ncc1C` (stereo partly drawn) [Compound 1-33, 2-((6-(4-((4-cyano-2-methoxybenzyl)oxy)-5-methylpyrimidin-2-yl)-3-azabicyclo[4.1.0]heptan-3-yl)methyl)-4-methoxy-1-(((S)-oxetan-2-yl)methyl)-1H-benzo[d]imidazole-6-carboxylic acid], the half-maximal effective concentration (EC50) stood at 105 nM.

`COc1cc(C(F)(F)F)ccc1COc1ccnc(C23CCN(Cc4nc5c(OC)cc(C(=O)O)cc5n4C[C@@H]4CCO4)CC2C3)n1` (stereo partly drawn) [Compound 1-34, 4-methoxy-2-((6-(4-((2-methoxy-4-(trifluoromethyl)benzyl)oxy)pyrimidin-2-yl)-3-azabicyclo[4.1.0]heptan-3-yl)methyl)-1-(((S)-oxetan-2-yl)methyl)-1H-benzo[d]imidazole-6-carboxylic acid]: the EC50 is 1.06 nM.

As for `COc1nc(C#N)ccc1COc1ccnc(C23CCN(Cc4nc5c(OC)cc(C(=O)O)cc5n4C[C@@H]4CCO4)CC2C3)n1` (stereo partly drawn) [Compound 1-35, 2-((6-(4-((6-cyano-2-methoxypyridin-3-yl)methoxy)pyrimidin-2-yl)-3-azabicyclo[4.1.0]heptan-3-yl)methyl)-4-methoxy-1-(((S)-oxetan-2-yl)methyl)-1H-benzo[d]imidazole-6-carboxylic acid], the EC50 turned out to be 2.68 nM.

Consider `COc1c(COc2cccc(C34CCN(Cc5nc6c(OC)cc(C(=O)O)cc6n5C[C@@H]5CCO5)CC3C4)n2)ccc(C#N)c1F` (stereo partly drawn) [Compound 1-36, 2-((6-(6-((4-cyano-3-fluoro-2-methoxybenzyl)oxy)pyridin-2-yl)-3-azabicyclo[4.1.0]heptan-3-yl)methyl)-4-methoxy-1-(((S)-oxetan-2-yl)methyl)-1H-benzo[d]imidazole-6-carboxylic acid], for which the concentration giving a half-maximal response (EC50) stood at 9.38 nM.

For the compound `COc1ccc(COc2cccc(C34CCN(Cc5nc6ccc(C(=O)O)cc6n5C[C@@H]5CCO5)CC3C4)n2)c(F)c1` (stereo partly drawn) [Compound 1-37, 2-((6-(6-((2-fluoro-4-methoxybenzyl)oxy)pyridin-2-yl)-3-azabicyclo[4.1.0]heptan-3-yl)methyl)-1-(((S)-oxetan-2-yl)methyl)-1H-benzo[d]imidazole-6-carboxylic acid], the EC50 was found to be 497 nM.

In the case of `COc1cc(C#N)ccc1COc1ccnc(C23CCN(Cc4nc5c(OC)cc(C(=O)O)cc5n4C[C@@H]4CCO4)CC2C3)n1` (stereo partly drawn) [Compound 1-38, 2-((6-(4-((4-cyano-2-methoxybenzyl)oxy)pyrimidin-2-yl)-3-azabicyclo[4.1.0]heptan-3-yl)methyl)-4-methoxy-1-(((S)-oxetan-2-yl)methyl)-1H-benzo[d]imidazole-6-carboxylic acid], the EC50 stood at 0.79 nM.

On to `CCOc1cc(C#N)ccc1COc1ccnc(C23CCN(Cc4nc5c(OC)cc(C(=O)O)cc5n4C[C@@H]4CCO4)CC2C3)n1` (stereo partly drawn) [Compound 1-39, 2-((6-(4-((4-cyano-2-ethoxybenzyl)oxy)pyrimidin-2-yl)-3-azabicyclo[4.1.0]heptan-3-yl)methyl)-4-methoxy-1-(((S)-oxetan-2-yl)methyl)-1H-benzo[d]imidazole-6-carboxylic acid], for which the EC50 turned out to be 29 nM.

Take `COc1cc(C(=O)O)cc2c1nc(CN1CCC3(c4nccc(OCc5ccc(C#N)cc5OC(C)C)n4)CC3C1)n2C[C@@H]1CCO1` (stereo partly drawn) [Compound 1-40, 2-((6-(4-((4-cyano-2-isopropoxybenzyl)oxy)pyrimidin-2-yl)-3-azabicyclo[4.1.0]heptan-3-yl)methyl)-4-methoxy-1-(((S)-oxetan-2-yl)methyl)-1H-benzo[d]imidazole-6-carboxylic acid]: the EC50 was found to be 22.1 nM.

In the case of `CCOc1cc(C(=O)O)cc2c1nc(CN1CCC3(c4nccc(OCc5ccc(C#N)cc5OC)n4)CC3C1)n2C[C@@H]1CCO1` (stereo partly drawn) [Compound 1-41, 2-((6-(4-((4-cyano-2-methoxybenzyl)oxy)pyrimidin-2-yl)-3-azabicyclo[4.1.0]heptan-3-yl)methyl)-4-ethoxy-1-(((S)-oxetan-2-yl)methyl)-1H-benzo[d]imidazole-6-carboxylic acid], the EC50 is 0.34 nM.

For the compound `COc1cc(C#N)ccc1COc1ccnc(C23CCN(Cc4nc5c(OC(C)C)cc(C(=O)O)cc5n4C[C@@H]4CCO4)CC2C3)n1` (stereo partly drawn) [Compound 1-42, 2-((6-(4-((4-cyano-2-methoxybenzyl)oxy)pyrimidin-2-yl)-3-azabicyclo[4.1.0]heptan-3-yl)methyl)-4-isopropoxy-1-(((S)-oxetan-2-yl)methyl)-1H-benzo[d]imidazole-6-carboxylic acid], the EC50 is 6.5 nM.

Regarding `COc1cc(C#N)ccc1COc1nc(C23CCN(Cc4nc5c(OC)cc(C(=O)O)cc5n4C[C@@H]4CCO4)CC2C3)ncc1F` (stereo partly drawn) [Compound 1-43, 2-((6-(4-((4-cyano-2-methoxybenzyl)oxy)-5-fluoropyrimidin-2-yl)-3-azabicyclo[4.1.0]heptan-3-yl)methyl)-4-methoxy-1-(((S)-oxetan-2-yl)methyl)-1H-benzo[d]imidazole-6-carboxylic acid], the EC50 is 0.49 nM.

As to `CCn1cncc1Cn1c(CN2CCC3(c4cccc(OCc5ccc(C#N)cc5OC)n4)CC3C2)nc2ccc(C(=O)O)cc21` (centres unmarked) [Compound 1-44, 2-((6-(6-((4-cyano-2-methoxybenzyl)oxy)pyridin-2-yl)-3-azabicyclo[4.1.0]heptan-3-yl)methyl)-1-((1-ethyl-1H-imidazol-5-yl)methyl)-1H-benzo[d]imidazole-6-carboxylic acid], the EC50 was determined as 0.3 nM.

For the compound `CCn1cncc1Cn1c(CN2CCC3(c4nccc(OCc5ccc(C#N)cc5OC)n4)CC3C2)nc2c(OC)cc(C(=O)O)cc21` (centres unmarked) [Compound 1-45, 2-((6-(4-((4-cyano-2-methoxybenzyl)oxy)pyrimidin-2-yl)-3-azabicyclo[4.1.0]heptan-3-yl)methyl)-1-((1-ethyl-1H-imidazol-5-yl)methyl)-4-methoxy-1H-benzo[d]imidazole-6-carboxylic acid], the EC50 amounted to 0.16 nM.

Take `COc1cc(C#N)ccc1COc1ccnc(C23CCN(Cc4nc5c(Cl)cc(C(=O)O)cc5n4C[C@@H]4CCO4)CC2C3)n1` (stereo partly drawn) [Compound 1-46, 4-chloro-2-((6-(4-((4-cyano-2-methoxybenzyl)oxy)pyrimidin-2-yl)-3-azabicyclo[4.1.0]heptan-3-yl)methyl)-1-(((S)-oxetan-2-yl)methyl)-1H-benzo[d]imidazole-6-carboxylic acid]: the EC50 was 2.6 nM.
